Results as given in patent publication US9663529B2, “Tricyclic pyrido-carboxamide derivatives as rock inhibitors” (BRISTOL-MYERS SQUIBB COMPANY, priority 2013, dated 2017).

Target: ROCK2 (Homo sapiens (Human), UniProt O75116)
Assay: ROCK assay (Caliper LABCHIP peptide phosphorylation, 5 μM ATP)
Type: biochemical
Settings: 1.5 μM peptide substrate

Sequence of ROCK2 (O75116 whole entry, species assumed): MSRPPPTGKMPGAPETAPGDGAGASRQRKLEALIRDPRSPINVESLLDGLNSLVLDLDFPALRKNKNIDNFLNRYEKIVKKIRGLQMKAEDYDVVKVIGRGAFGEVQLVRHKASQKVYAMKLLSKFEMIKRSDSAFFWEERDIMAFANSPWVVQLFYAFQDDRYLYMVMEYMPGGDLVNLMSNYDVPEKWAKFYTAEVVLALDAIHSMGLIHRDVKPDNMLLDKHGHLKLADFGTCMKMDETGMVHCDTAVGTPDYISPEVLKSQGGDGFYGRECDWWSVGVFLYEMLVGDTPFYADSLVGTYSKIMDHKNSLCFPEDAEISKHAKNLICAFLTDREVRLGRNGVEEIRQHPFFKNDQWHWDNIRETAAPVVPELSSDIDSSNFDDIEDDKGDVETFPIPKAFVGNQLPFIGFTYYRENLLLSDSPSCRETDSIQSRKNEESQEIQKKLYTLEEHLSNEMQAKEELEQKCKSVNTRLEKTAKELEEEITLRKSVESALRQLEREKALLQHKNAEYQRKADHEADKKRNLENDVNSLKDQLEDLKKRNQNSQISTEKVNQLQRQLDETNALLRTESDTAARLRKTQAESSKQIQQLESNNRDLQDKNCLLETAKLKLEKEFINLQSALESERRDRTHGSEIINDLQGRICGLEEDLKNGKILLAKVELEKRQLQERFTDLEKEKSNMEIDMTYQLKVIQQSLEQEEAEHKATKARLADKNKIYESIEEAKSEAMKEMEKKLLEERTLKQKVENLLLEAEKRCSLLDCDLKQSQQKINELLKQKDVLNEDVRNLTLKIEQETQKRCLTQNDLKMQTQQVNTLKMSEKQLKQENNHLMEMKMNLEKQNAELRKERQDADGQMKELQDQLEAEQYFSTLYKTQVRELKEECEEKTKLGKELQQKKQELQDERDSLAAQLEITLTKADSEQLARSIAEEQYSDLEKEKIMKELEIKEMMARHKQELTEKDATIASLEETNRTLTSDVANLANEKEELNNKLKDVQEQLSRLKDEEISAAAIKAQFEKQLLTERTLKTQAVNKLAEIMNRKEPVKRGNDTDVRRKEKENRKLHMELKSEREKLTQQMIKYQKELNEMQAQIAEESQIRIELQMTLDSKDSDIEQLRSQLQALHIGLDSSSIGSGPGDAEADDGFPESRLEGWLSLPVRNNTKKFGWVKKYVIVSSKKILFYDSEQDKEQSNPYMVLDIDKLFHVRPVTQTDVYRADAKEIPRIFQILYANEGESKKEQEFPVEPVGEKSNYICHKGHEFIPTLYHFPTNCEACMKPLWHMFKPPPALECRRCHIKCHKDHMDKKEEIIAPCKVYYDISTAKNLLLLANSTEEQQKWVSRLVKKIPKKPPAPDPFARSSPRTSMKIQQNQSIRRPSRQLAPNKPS

IC50 | SMILES
500 nM | NS(=O)(=O)c1ccc(C(=O)Nc2ccc3c(c2)OCc2cnccc2-3)cc1 [Example I-40, N-(5H-chromeno[3,4-c]pyridin-8-yl)-4-sulfamoylbenzamide]
2760 nM | O=C(Nc1ccc2c(c1)OCc1cnccc1-2)c1csnn1 [Example I-41, N-(5H-chromeno[3,4-c]pyridin-8-yl)-1,2,3-thiadiazole-4-carboxamide]
1450 nM | O=C(Nc1ccc2c(c1)OCc1cnccc1-2)c1cscn1 [Example I-44, N-(5H-chromeno[3,4-c]pyridin-8-yl) thiazole-4-carboxamide]
1980 nM | O=C(Nc1ccc2c(c1)OCc1cnccc1-2)c1cncnc1 [Example I-45, N-(5H-chromeno[3,4-c]pyridin-8-yl) pyrimidine-5-carboxamide]
51.2 nM | O=C(Nc1ccc2c(c1)OCc1cnccc1-2)C(O)c1ccccc1 (stereo not drawn) [Example I-46, N-(5H-chromeno[3,4-c]pyridin-8-yl)-2-hydroxy-2-phenylacetamide]
4810 nM | O=C(Nc1ccc2c(c1)OCc1cnccc1-2)c1ccccc1 [Example I-50, N-(5H-chromeno[3,4-c]pyridin-8-yl)benzamide]
1150 nM | O=C(Nc1ccc2c(c1)OCc1cnccc1-2)c1ccccc1Cl [Example I-51, 2-chloro-N-(5H-chromeno[3,4-c]pyridin-8-yl)benzamide]
3560 nM | O=C(Nc1ccc2c(c1)OCc1cnccc1-2)c1cccc(F)c1 [Example I-52, N-(5H-chromeno[3,4-c]pyridin-8-yl)-3-fluorobenzamide]
4500 nM | O=C(Nc1ccc2c(c1)OCc1cnccc1-2)c1cccc(Cl)c1 [Example I-53, 3-chloro-N-(5H-chromeno[3,4-c]pyridin-8-yl)benzamide]
2560 nM | N#Cc1ccc(C(=O)Nc2ccc3c(c2)OCc2cnccc2-3)cc1 [Example I-54, N-(5H-chromeno[3,4-c]pyridin-8-yl)-4-cyanobenzamide]
3250 nM | COc1ccc(C(=O)Nc2ccc3c(c2)OCc2cnccc2-3)cc1 [Example I-55, N-(5H-chromeno[3,4-c]pyridin-8-yl)-4-methoxybenzamide]
40.4 nM | O=C(CCc1ccccc1)Nc1ccc2c(c1)OCc1cnccc1-2 [Example I-60, N-(5H-chromeno[3,4-c]pyridin-8-yl)-3-phenylpropanamide]
4720 nM | O=C(Nc1ccc2c(c1)OCc1cnccc1-2)c1ccc2ccccc2c1 [Example I-61, N-(5H-chromeno[3,4-c]pyridin-8-yl)-2-naphthamide]
2960 nM | Cn1cccc1C(=O)Nc1ccc2c(c1)OCc1cnccc1-2 [Example I-64, N-(5H-chromeno[3,4-c]pyridin-8-yl)-1-methyl-1H-pyrrole-2-carboxamide]
1220 nM | O=C(Nc1ccc2c(c1)OCc1cnccc1-2)c1ccccc1-c1ccccc1 [Example I-65, N-(5H-chromeno[3,4-c]pyridin-8-yl) biphenyl-2-carboxamide]
2590 nM | COc1cccc(C(=O)Nc2ccc3c(c2)OCc2cnccc2-3)c1 [Example I-66, N-(5H-chromeno[3,4-c]pyridin-8-yl)-3-methoxybenzamide]
471 nM | O=C(CC(c1ccccc1)c1ccccc1)Nc1ccc2c(c1)OCc1cnccc1-2 [Example I-67, N-(5H-chromeno[3,4-c]pyridin-8-yl)-3,3-diphenylpropanamide]
1080 nM | O=C(Cc1ccc(C(F)(F)F)cc1)Nc1ccc2c(c1)OCc1cnccc1-2 [Example I-69, N-(5H-chromeno[3,4-c]pyridin-8-yl)-2-(4-(trifluoromethyl)phenyl)acetamide]

IC50 | SMILES
316 nM | O=C(Nc1ccc2c(c1)OCc1cnccc1-2)c1csc(-c2ccncc2)n1 [Example I-71, N-(5H-chromeno[3,4-c]pyridin-8-yl)-2-(pyridin-4-yl)thiazole-4-carboxamide]
58.7 nM | O=C(Nc1ccc2c(c1)OCc1cnccc1-2)C1Cc2ccccc2C1 [Example I-72, N-(5H-chromeno[3,4-c]pyridin-8-yl)-2,3-dihydro-1H-indene-2-carboxamide]
619 nM | O=C(Nc1ccc2c(c1)OCc1cnccc1-2)c1nc2ccccc2[nH]1 [Example I-73, N-(5H-chromeno[3,4-c]pyridin-8-yl)-1H-benzo[d]imidazole-2-carboxamide]
50.9 nM | COc1cccc(CCC(=O)Nc2ccc3c(c2)[nH]c2cnccc23)c1 [Example IV-1, 3-(3-Methoxyphenyl)-N-(9H-pyrido[3,4-b]indol-7-yl)propanamide]
21 nM | O=C(Cc1cccc(F)c1)Nc1ccc2c(c1)[nH]c1cnccc12 [Example IV-3, 2-(3-Fluorophenyl)-N-(9H-pyrido[3,4-b]indol-7-yl)acetamide]
383 nM | N#Cc1cccc(CC(=O)Nc2ccc3c(c2)[nH]c2cnccc23)c1 [Example IV-5, 2-(3-Cyanophenyl)-N-(9H-pyrido[3,4-b]indol-7-yl)acetamide]
557 nM | O=C(Nc1ccc2c(c1)OCc1cnccc1-2)Nc1ccccc1Cl [II-2, 1-(2-chlorophenyl)-3-(5H-chromeno[3,4-c]pyridin-8-yl) urea]
189 nM | O=C(NCCc1ccccc1)Nc1ccc2c(c1)OCc1cnccc1-2 [II-3, 1-(5H-chromeno[3,4-c]pyridin-8-yl)-3-phenethylurea]
2370 nM | O=C(Nc1cccc(Cl)c1)Nc1ccc2c(c1)OCc1cnccc1-2 [II-4, 1-(3-chlorophenyl)-3-(5H-chromeno[3,4-c]pyridin-8-yl) urea]
1420 nM | O=C(Nc1cccnc1)Nc1ccc2c(c1)OCc1cnccc1-2 [II-5, 1-(5H-chromeno[3,4-c]pyridin-8-yl)-3-(pyridin-3-yl)urea]
1610 nM | COc1ccc(CCNC(=O)Nc2ccc3c(c2)OCc2cnccc2-3)cc1 [II-6, 1-(5H-chromeno[3,4-c]pyridin-8-yl)-3-(4-methoxyphenethyl) urea]
233 nM | O=C(NCCc1ccccc1F)Nc1ccc2c(c1)OCc1cnccc1-2 [II-7, 1-(5H-chromeno[3,4-c]pyridin-8-yl)-3-(2-fluorophenethyl)urea]
910 nM | O=C(NCC(c1ccccc1)c1ccccc1)Nc1ccc2c(c1)OCc1cnccc1-2 [II-8, 1-(5H-chromeno[3,4-c]pyridin-8-yl)-3-(2,2-diphenylethyl)urea]
971 nM | O=C(NCCc1ccc(Cl)cc1)Nc1ccc2c(c1)OCc1cnccc1-2 [II-9, 1-(4-chlorophenethyl)-3-(5H-chromeno[3,4-c]pyridin-8-yl) urea]
248 nM | O=C(NCCc1cccc(Cl)c1)Nc1ccc2c(c1)OCc1cnccc1-2 [II-10, 1-(3-chlorophenethyl)-3-(5H-chromeno[3,4-c]pyridin-8-yl) urea]
2240 nM | Cc1onc(-c2ccccc2)c1NC(=O)Nc1ccc2c(c1)OCc1cnccc1-2 [II-11, 1-(5H-chromeno[3,4-c]pyridin-8-yl)-3-(5-methyl-3-phenylisoxazol-4-yl)urea]
685 nM | O=C(NCCc1ccc2c(c1)OCO2)Nc1ccc2c(c1)OCc1cnccc1-2 [II-12, 1-(2-(benzo[d][1,3]dioxol-5-yl)ethyl)-3-(5H-chromeno[3,4-c]pyridin-8-yl)urea]

SMILES | IC50
O=C(Cc1cccnc1)Nc1ccc2c(c1)OCc1cnccc1-2 [Example I-42, N-(5H-chromeno[3,4-c]pyridin-8-yl)-2-(pyridin-3-yl) acetamide] | 287 nM
CS(=O)(=O)c1cccc(C(=O)Nc2ccc3c(c2)OCc2cnccc2-3)c1 [Example I-43, N-(5H-chromeno[3,4-c]pyridin-8-yl)-3-(methylsulfonyl) benzamide] | 2190 nM
O=C(CCn1ccnc1)Nc1ccc2c(c1)OCc1cnccc1-2 [Example I-48, N-(5H-chromeno[3,4-c]pyridin-8-yl)-3-(1H-imidazol-1-yl) propanamide] | 992 nM
O=C(Cc1cnccn1)Nc1ccc2c(c1)OCc1cnccc1-2 [Example I-49, N-(5H-chromeno[3,4-c]pyridin-8-yl)-2-(pyrazin-2-yl) acetamide] | 1250 nM
COC(=O)c1ccc(C(=O)Nc2ccc3c(c2)OCc2cnccc2-3)cc1 [Example I-56, methyl 4-(5H-chromeno[3,4-c]pyridin-8-ylcarbamoyl) benzoate] | 626 nM
COc1ccc(CCC(=O)Nc2ccc3c(c2)OCc2cnccc2-3)cc1 [Example I-57, N-(5H-chromeno[3,4-c]pyridin-8-yl)-3-(4-methoxyphenyl) propanamide] | 1140 nM
O=C(CCc1ccc(O)cc1)Nc1ccc2c(c1)OCc1cnccc1-2 [Example I-58, N-(5H-chromeno[3,4-c]pyridin-8-yl)-3-(4-hydroxyphenyl) propanamide] | 111 nM
O=C(Cc1nnn[nH]1)Nc1ccc2c(c1)OCc1cnccc1-2 [Example I-59, N-(5H-chromeno[3,4-c]pyridin-8-yl)-2-(1H-tetrazol-5-yl) acetamide] | 3820 nM
CN(C)c1ccc(C(=O)Nc2ccc3c(c2)OCc2cnccc2-3)cc1 [Example I-63, N-(5H-chromeno[3,4-c]pyridin-8-yl)-4-(dimethylamino) benzamide] | 2370 nM
O=C(Cc1ccc(Cl)c(Cl)c1)Nc1ccc2c(c1)OCc1cnccc1-2 [Example I-68, N-(5H-chromeno[3,4-c]pyridin-8-yl)-2-(3,4-dichlorophenyl) acetamide] | 362 nM
O=C(Cc1ccc(-n2cnc3ccccc3c2=O)cc1)Nc1ccc2c(c1)OCc1cnccc1-2 [Example I-70, N-(5H-chromeno[3,4-c]pyridin-8-yl)-2-(4-(4-oxoquinazolin-3(4H)-yl)phenyl) acetamide] | 1130 nM
O=C(Nc1ccc2c(c1)OCc1cnccc1-2)N1CCc2ccccc21 [Example II-1, N-(5H-Chromeno[3,4-c]pyridin-8-yl)indoline-1-carboxamide] | 387 nM
O=C(Cc1ccccc1)Nc1ccc2c(c1)[nH]c1cnccc12 [Example IV-4, 2-Phenyl-N-(9H-pyrido[3,4-b]indol-7-yl)acetamide] | 9.5 nM

Tested on: IL-1 beta-induced coronary stenosis
Assay: not given
Settings: long term treatment; cited from earlier work

SMILES | coronary constrictive remodeling | coronary stenosis
O=S(=O)(c1cccc2cnccc12)N1CCCNCC1 [fasudil] | promote a regression of coronary constrictive remodeling | progressively reduce coronary stenosis

Tested on: rat stroke model
Assay: not given
Settings: in vivo; cited from earlier work

SMILES | infarct size and neurologic deficit
O=S(=O)(c1cccc2cnccc12)N1CCCNCC1 [fasudil] | reduce both the infarct size and neurologic deficit
